Patent publication US11976061B2, “Preparation of benzimidazolone derivatives as novel diacylglyceride O-acyltransferase 2 inhibitors” (Merck Sharp & Dohme LLC, priority 2020, dated 2024)
Where two headings read alike, the source gives them in different places.

Target: T1, human DGAT2 (hDGAT2) (Homo sapiens, UniProt Q96PD7)
T1 construct: made in house; host or cells: Sf-9 insect cells (baculovirus), membrane fraction
T1 sequence (Q96PD7 1-388): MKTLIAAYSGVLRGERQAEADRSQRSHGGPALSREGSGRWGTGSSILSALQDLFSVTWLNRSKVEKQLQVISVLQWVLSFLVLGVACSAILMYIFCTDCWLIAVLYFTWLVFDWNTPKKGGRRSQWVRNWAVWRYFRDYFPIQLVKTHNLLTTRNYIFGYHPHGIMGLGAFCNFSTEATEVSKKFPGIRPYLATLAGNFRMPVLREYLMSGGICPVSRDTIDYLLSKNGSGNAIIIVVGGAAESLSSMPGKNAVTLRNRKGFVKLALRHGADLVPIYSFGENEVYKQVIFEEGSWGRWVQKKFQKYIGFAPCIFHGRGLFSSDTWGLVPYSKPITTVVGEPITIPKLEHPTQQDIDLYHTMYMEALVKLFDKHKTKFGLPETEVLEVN
Test: DGAT2 Enzymatic Activity Assay
Type: biochemical
Conditions: membrane prep of Sf-9 cells expressing hDGAT2, 25 μM diolein, 5 μM 13C oleoyl-CoA, 13C18-triolein by LC/MS/MS
Experimental: Insect Cell Expression and Membrane Preparation
Sf-9 insect cells were maintained in Grace's insect cell culture medium with 10% heated-inactivated fetal bovine serum, 1% Pluronic F-68 and 0.14 μg/ml Kanamycine sulfate at 27° C. in a shaker incubator. After infection with untagged baculovirus expressing human DGAT2 (hDGAT2) at multiplicity of infection (MOI) 3 for 48 hours, cells were harvested. Cell pellets were suspended in buffer containing 10 mM Tris-HCl pH 7.5, 1 mM EDTA, 250 mM sucrose and Complete Protease Inhibitor Cocktail (Sigma Aldrich), and sonicated on ice. Cell debris were removed by centrifugation at 2000×g for 15 minutes. Membrane fractions were isolated by ultracentrifugation (100,000×g), resuspended in the same buffer, and frozen (−80° C.) for later use. The protein concentration was determined with the Pierce™ BCA Protein Assay Kit (Thermo Fisher Scientific). Expression of protein levels was analyzed by immunoblotting with rabbit anti-DGAT2 antibody (Abcam, ab102831) and donkey anti-rabbit IgG H&L Alexa Fluor® 647 (Abcam, ab150075) followed by detection using Typhoon FLA9000 (GE Healthcare).
LC/MS/MS analyses were performed using Thermal Fisher's LX4-TSQ Vantage system. This system consists of an Agilent binary high-performance liquid chromatography (HPLC) pump and a TSQ Vantage triple quadrupole MS/MS instrument. For each sample, 2 μL samples from the top organic layer of in-plate liquid-liquid extraction were injected onto a Thermo Betabasic C4 column (2.1 mm×20 mm, 5 μm particle size). The samples were then eluted using the following conditions; mobile phase: Isopropanol:acetonitrile/10 mM ammonium formate=50/35/15 (v/v/v), flow rate: 0.8 mL/min, temperature: 25° C. Data was acquired in positive mode using a heated electrospray ionization (HESI) interface. The operational parameters for the TSQ Vantage MS/MS instrument were a spray voltage of 3000 V, capillary temperature of 280° C., vaporizer temperature 400° C., sheath gas 45 arbitrary unit, Aux gas 10 arbitrary units, S-lens 165 and collision gas 1.0 mTorr. […] (SRM) chromatograms of ^13C18-triolein (Q1: 920.8>Q3: 621.3) and internal standard ^13C21-triolein (Q1: 923.8>Q3: 617.3) were collected for 33 sec. The peak area was integrated by Xcalibur Quan software. The ratio between the ^13C18triolein generated in the reaction and spiked in internal standard ^13C21-triolein was used to generate percentage inhibition and IC50 values. Compound percentage inhibition was calculated by the following formula: Inhibition %=1−[(compound response−low control)/(high control−low control)]×100%. Potent compounds were titrated and IC50 were calculated by 4 parameter sigmoidal curve fitting formula.
DGAT2 Enzymatic Activity Assay
DGAT2 activity was determined by measuring the amount of enzymatic product ^13C18-triolein (^13C-1,2,3-Tri(cis-9-octadecenoyl)glycerol) using the membrane prep mentioned above. The assay was carried out in ABgene 384-well assay plates in a final volume of 25 μL at rt. The assay mixture contained the following: assay buffer (100 mM Tris·Cl, pH 7.0, 20 mM MgCl2, 5% ethanol), 25 μM of diolein, 5 μM of ^13C oleoyl-CoA and 8 ng/μL of DGAT2 membrane.

SMILES | IC50 (read-out: DGAT2 IC50) | IC50 (read-out: Human DGAT2 IC50)
CCOc1cc(-n2c(=O)n(C(C)C(C)(C)O)c3cc(C(=O)NC4(C)CS(=O)(=O)C4)ccc32)c(F)cn1 (single isomer, unassigned) [Example 78a, 1-(2-ethoxy-5-fluoropyridin-4-yl)-3-(3-hydroxy-3-methylbutan-2-yl)-N-(3-methyl-1,1-dioxidothietan-3-yl)-2-oxo-2,3-dihydro-1H-benzo[d]imidazole-5-carboxamide] | 123 nM | 
CCOc1cc(-n2c(=O)n(C(C)C(C)(C)O)c3cc(C(=O)NC4(C)CS(=O)(=O)C4)ccc32)c(F)cn1 (single isomer, unassigned) [Example 78b, 1-(2-ethoxy-5-fluoropyridin-4-yl)-3-(3-hydroxy-3-methylbutan-2-yl)-N-(3-methyl-1,1-dioxidothietan-3-yl)-2-oxo-2,3-dihydro-1H-benzo[d]imidazole-5-carboxamide] | 13 nM | 
CC1(NC(=O)c2ccc3c(c2)n(-c2ccc(F)cc2)c(=O)n3-c2cccc(OC(F)F)c2)CS(=O)(=O)C1 [Example 2, 1-(3-(difluoromethoxy)phenyl)-3-(4-fluorophenyl)-N-(3-methyl-1,1-dioxidothietan-3-yl)-2-oxo-2,3-dihydro-1H-benzo[d]imidazole-5-carboxamide] |  | 1.8 nM
CC(C)Oc1cccc(-n2c(=O)n(C(C)C)c3cc(C(=O)NC4(C)CS(=O)(=O)C4)ccc32)c1 [Example 6, 1-(3-isopropoxyphenyl)-3-isopropyl-N-(3-methyl-1,1-dioxo-thietan-3-yl)-2-oxo-benzimidazole-5-carboxamide] |  | 88 nM
CC(C)n1c(=O)n(-c2cccc(OC(F)(F)F)c2)c2ccc(C(=O)NC3(C)CCS(=O)(=O)CC3)cc21 [Example 10, 3-isopropyl-N-(4-methyl-1,1-dioxo-thian-4-yl)-2-oxo-1-[3-(trifluoromethoxy)phenyl]benz-imidazole-5-carboxamide] |  | 153 nM
CC(C)n1c(=O)n(-c2cccc(OCC(F)F)c2)c2ccc(C(=O)NC3(C)CCS(=O)(=O)CC3)cc21 [Example 11, 1-[3-(2,2-difluoroethoxy)phenyl]-3-isopropyl-N-(4-methyl-1,1-dioxo-thian-4-yl)-2-oxo-benzimidazole-5-carboxamide] |  | 15 nM
CC(C)n1c(=O)n(-c2cc(OC(F)F)ccn2)c2ccc(C(=O)NC3(C)CS(=O)(=O)C3)cc21 [Example 12, 1-[4-(difluoromethoxy)-2-pyridyl]-3-isopropyl-N-(3-methyl-1,1-dioxo-thietan-3-yl)-2-oxo-benzimidazole-5-carboxamide] |  | 122 nM
CC(C)n1c(=O)n(-c2cccc(C3CC3)c2)c2ccc(C(=O)NC3(C)CS(=O)(=O)C3)cc21 [Example 13, 1-(3-cyclopropylphenyl)-3-isopropyl-N-(3-methyl-1,1-dioxo-thietan-3-yl)-2-oxo-benzimidazole-5-carboxamide] |  | 17 nM
CC(C)n1c(=O)n(-c2cccc(OC3CC3)c2)c2ccc(C(=O)NC3(C)CS(=O)(=O)C3)cc21 [Example 14, 1-[3-(cyclopropoxy)phenyl]-3-isopropyl-N-(3-methyl-1,1-dioxo-thietan-3-yl)-2-oxo-benzimidazole-5-carboxamide] |  | 15 nM
CCOc1cc(-n2c(=O)n(C(C)C)c3cc(C(=O)NC4(C)CCS(=O)(=O)CC4)ccc32)c(F)cn1 [Example 15, 1-(2-Ethoxy-5-fluoropyridin-4-yl)-3-isopropyl-N-(4-methyl-1,1-dioxidotetrahydro-2H-thiopyran-4-yl)-2-oxo-2,3-dihydro-1H-benzo[d]imidazole-5-carboxamide] |  | 6.7 nM
CCOc1cc(-n2c(=O)n(C(C)C)c3cc(C(=O)N[C@@]4(C)CCS(=O)(=O)C4)ccc32)c(F)cn1 [Example 17, (S)-1-(2-Ethoxy-5-fluoropyridin-4-yl)-3-isopropyl-N-(3-methyl-1,1-dioxidotetrahydrothiophen-3-yl)-2-oxo-2,3-dihydro-1H-benzo[d]imidazole-5-carboxamide] |  | 122 nM

Continued by falling IC50 (read-out: Human DGAT2 IC50), values first:

IC50 (read-out: DGAT2 IC50) | IC50 (read-out: Human DGAT2 IC50) | SMILES
 | 573 nM | C[C@@]1(NC(=O)c2ccc3c(c2)n(-c2ccc(F)cc2)c(=O)n3-c2ccc(F)cc2)CCS(=O)(=O)C1 [Example 1, (R)-1,3-bis(4-fluorophenyl)-N-(3-methyl-1,1-dioxidotetrahydrothiophen-3-yl)-2-oxo-2,3-dihydro-1H-benzo[d]imidazole-5-carboxamide]
 | 43 nM | CC(C)n1c(=O)n(-c2cccc(OCC(F)F)c2)c2ccc(C(=O)NC3(C)CS(=O)(=O)C3)cc21 [Example 8, 1-[3-(2,2-difluoroethoxy)phenyl]-3-isopropyl-N-(3-methyl-1,1-dioxo-thietan-3-yl)-2-oxo-benzimidazole-5-carboxamide]
 | 34 nM | CC(C)n1c(=O)n(-c2cc(OC(F)F)ncc2F)c2ccc(C(=O)NC3(C)CCS(=O)(=O)CC3)cc21 [Example 5, 1-(2-(Difluoromethoxy)-5-fluoropyridin-4-yl)-3-isopropyl-N-(4-methyl-1,1-dioxidotetrahydro-2H-thiopyran-4-yl)-2-oxo-2,3-dihydro-1H-benzo[d]imidazole-5-carboxamide]
 | 32 nM | CCOc1cc(-n2c(=O)n(C(C)C)c3cc(C(=O)NC4(C)CS(=O)(=O)C4)ccc32)c(F)cn1 [Example 16, 1-(2-ethoxy-5-fluoropyridin-4-yl)-3-isopropyl-N-(3-methyl-1,1-dioxidothietan-3-yl)-2-oxo-2,3-dihydro-1H-benzo[d]imidazole-5-carboxamide]
 | 28 nM | CCOc1cc(-n2c(=O)n(C(C)C)c3cc(C(=O)N[C@]4(C)CCS(=O)(=O)C4)ccc32)c(F)cn1 [Example 18, (R)-1-(2-Ethoxy-5-fluoropyridin-4-yl)-3-isopropyl-N-(3-methyl-1,1-dioxidotetrahydrothiophen-3-yl)-2-oxo-2,3-dihydro-1H-benzo[d]imidazole-5-carboxamide]
 | 16 nM | CC(C)n1c(=O)n(-c2cccc(OC(F)(F)C(F)F)c2)c2ccc(C(=O)NC3(C)CS(=O)(=O)C3)cc21 [Example 7, 3-isopropyl-N-(3-methyl-1,1-dioxo-thietan-3-yl)-2-oxo-1-[3-(1,1,2,2-tetrafluoroethoxy)phenyl]benz-imidazole-5-carboxamide]
 | 8.5 nM | CC1(NC(=O)c2cnc3c(c2)n(-c2ccc(F)cc2)c(=O)n3-c2cccc(OC(F)F)c2)CS(=O)(=O)C1 [Example 4, 3-(3-(difluoromethoxy)phenyl)-1-(4-fluorophenyl)-N-(3-methyl-1,1-dioxidothietan-3-yl)-2-oxo-2,3-dihydro-1H-imidazo[4,5-b]pyridine-6-carboxamide]
 | 4.3 nM | CCOc1cccc(-n2c(=O)n(C(C)C)c3cc(C(=O)NC4(C)CS(=O)(=O)C4)ccc32)c1 [Example 9, 1-(3-ethoxyphenyl)-3-isopropyl-N-(3-methyl-1,1-dioxo-thietan-3-yl)-2-oxo-benzimidazole-5-carboxamide]
 | 2.4 nM | C[C@@]1(NC(=O)c2ccc3c(c2)n(-c2ccc(F)cc2)c(=O)n3-c2cccc(OC(F)F)c2)CCS(=O)(=O)C1 [Example 3, (R)-1-(3-(difluoromethoxy)phenyl)-3-(4-fluorophenyl)-N-(3-methyl-1,1-dioxidotetrahydrothiophen-3-yl)-2-oxo-2,3-dihydro-1H-benzo[d]imidazole-5-carboxamide]
